Laboratory results as given in patent US20180311611A1, “ABSORBENT FOR THE SELECTIVE REMOVAL OF HYDROGEN SULFIDE” (BASF SE, priority 2015, published 2018).
Where two headings read alike, the source gives them in different places.

Assays:
[1] = physchem
Text: (§1) The pKA values are suitably determined in aqueous solution with an amine concentration of 0.01 mol/kg at the given temperature by determining the pH at the point of half-equivalence of the dissociation stage under consideration by means of addition of hydrochloric acid (1st dissociation stage 0.005 mol/kg; 2nd dissociation stage: 0.015 mol/kg; 3rd dissociation stage: 0.025 mol/kg). Measurement is accomplished using a thermostated closed jacketed vessel in which the liquid was blanketed with nitrogen. The Hamilton Polylite Plus 120 pH electrode was used, which was calibrated with pH 7 and pH 12 buffer solutions.

[2] = pKA determination of amines by pH at half-equivalence with hydrochloric acid; conditions: for pKA (120° C.) / pKA (50° C.): aqueous solution, amine 0.01 mol/kg; for ΔpKA (120 − 50° C.): difference between 120° C. and 50° C.
Text: as §1

| Compound | pKa ([1]; aqueous solution of the amine) | pKA (120° C.) ([2]; dissociation stage pKA1) | ΔpKA (120 − 50° C.) ([2]; dissociation stage pKA1) | pKA (50° C.) ([2]; dissociation stage pKA2) | pKA (120° C.) ([2]; dissociation stage pKA2) | ΔpKA (120 − 50° C.) ([2]; dissociation stage pKA2) | pKa [1] | pKA (50° C.) ([2]; dissociation stage pKA3) | pKA (120° C.) ([2]; dissociation stage pKA3) | ΔpKA (120 − 50° C.) ([2]; dissociation stage pKA3) | pKA (50° C.) ([2]; dissociation stage pKA1) |
| --- | --- | --- | --- | --- | --- | --- | --- | --- | --- | --- | --- |
| CN(C)C1CCC(N(C)C)CC1 (stereo not shown) [1,4-Bis(dimethylamino)cyclohexane] | 9.8 | 8.17 | 1.63 | 8.01 | 6.67 | 1.34 |  |  |  |  |  |
| CN(C)C1CCCCC1 [Cyclohexyl-N,N-dimethylamine] |  |  |  |  |  |  | 10 |  |  |  |  |
| CN(C)CCCN(CCO)CCCN(C)C [Hydroxyethylbis(dimethylaminopropyl)amine] | 10.1 | 8.63 | 1.51 | 10.13 | 8.62 | 1.51 |  | 10.12 | 8.69 | 1.43 |  |
| CN(C)CCCN1CN(CCCN(C)C)CN(CCCN(C)C)C1 [N,N,N′,N′,N″,N″-Hexamethyl-1,3,5-triazine-1,3,5(2H,4H,6H)-tripropanamine] | 11.2 | 9.78 | 1.59 |  | 9.35 | 1.88 |  | 10.45 | 7.97 | 2.48 | 11.37 |
